This is an account of results in PMC6156508, “GA-Hecate antiviral properties on HCV whole cycle represent a new antiviral class and open the door for the development of broad spectrum antivirals” (Scientific Reports, 2018).

Where no end group is shown, it is not given here.

Data set [1] has as its system HCV subgenomic replicon SGR-Feo-JFH-1 (genotype 2a). Nature of the data set: HCV subgenomic replicon replication, luciferase assay (genotype 2a). Type of data set: cell-based, hepatitis C virus. As to conditions: for SI (selectivity index), ratio CC50/EC50 / inhibition of HCV replication at the maximum safe concentration: 48 h, genotype 2a replicon; for EC50: Huh-7.5 harbouring SGR-Feo-JFH-1 genotype 2a, 48 h treatment, 2.5-20 μM, luciferase, triplicate in three independent assays, read-out: EC50 (50% effective concentration for HCV); for inhibition of HCV replication at the maximum safe concentration: at each peptide's maximum safe concentration (Hecate 10 μM; Lys-, Glu-, Acetyl-Hecate 5 μM). The source says:
(§1) Figure 2 Hecate and its derivative-peptide effects on subgenomic HCV genotype 2a replication and hepatotoxicity. (A) Hecate. (B) Lys- Hecate. (C) GA-Hecate. (D) GA2-Hecate. (E) Acetyl-Hecate. (F) Glu-Hecate. Luciferase assays report HCV replication and MTT assays report the viability of Huh-7.5 cells harboring SGR-JFH-1 Feo under peptide treatment. Water was used as a negative control of virus replication inhibition and cell death (Control (−)), and Cyclosporine A was used as a positive control for virus replication inhibition (Control (+)). Red dotted lines represent the arbitrary threshold of 80% cell viability, and blue dotted lines represent the maximum inhibition presented by Hecate at the maximum safe concentration. Bars represent triplicates of the three independent assays. ***P < 0.01 vs control (−).
Cell lines harboring subgenomic or genomic replicons were seeded at 5 × 10^3 cells /well on 96-well plates and the compounds were added 24 h post-seeding, in a concentration range between 2.5–20 μM. After 48 h of treatment, the cells were disrupted with 30 μL of passive lysis buffer (Promega, Madison, WI, USA), and luciferase substrate (Promega, Madison, WI, USA) was automatically added to each sample. Luciferase activity was measured using a luminometer (FLUOstar Omega/BMG LABTECH, Offenburg, BW, DE). The same assays were performed in Huh-7.5 cell lines harboring SGR-JFH1 Feo, S52/SG-neo or FL-J6/JFH-50C19Rluc2AUbi. Cyclosporine A (Sigma-Aldrich) at 1 μM was used as positive control of viral replication inhibition and dH2O as negative control.
(§2) GA-Hecate toxicity and viral inhibition profile in 24, 48 and 72h post-treatment in […]
(§3) GA-Hecate toxicity and viral inhibition capacity were evaluated at 24, 48 and 72h post-treatment. Tested concentrations were 1.25; 2.5; 5; 10; 20; and 40 µM. At the end of every incubation, cells were stained using MTT as previously described. Similarly, at every time point, treated cells were lysed using PLB and summited to Luminescence analysis as previously described. […]
For orientation: A replicon is a self-replicating genome or part of one, used to study replication in cells.

Data set [2] concerns Huh-7.5 cells harboring SGR-JFH-1 Feo. Nature of the data set: MTT cytotoxicity in hepatocytes. Type of data set: cell-based, human. As to conditions: for CC50 (50% cytotoxic concentration): 48 h incubation, SGR-Feo-JFH-1 Huh-7.5 cells, triplicate in three independent assays; for maximum non-toxic (safe) concentration in hepatocytes: arbitrary threshold of 80% cell viability, 48 h.
Source text: as §1
Peptide cytotoxicity profiles were measured by the MTT [3-(4,5-dimethylthiazol- 2-yl)-2,5-diphenyl tetrazolium bromide] (Sigma–Aldrich) method. Twenty-four hours before treatment, 5 × 10^3 SGR-harboring cell lines (SGR-Feo-JFH-1 or S52/SG-neo) were cultured with supplemented DMEM in a 96-multi-well plate and incubated at 37 °C in a humidified 5% CO2 incubator. On the subsequent day, peptide-containing medium was added at the following final concentrations: 2.5, 5, 10 and 20 μM. The tested peptides were Hecate and its derivatives, which included the following: lysine addition (Lysine-Hecate/Lys-Hecate); one or two molecules of Gallic Acid (GA-Hecate and GA2-Hecate); one acetyl radical (Acetyl-Hecate) or Glutamic acid (Glu-Hecate). After 48 h of incubation, peptide-media was removed, and MTT at a final concentration of 1 mg/mL was added to the wells, incubated for 30 minutes and subsequently replaced by 100 μL of DMSO. Absorbance was measured at 562 nm, using a plate spectrophotometer (FLUOstar Omega/BMG LABTECH, Offenburg, BW, DE). Cell viability was calculated considering water-treated cells (peptides diluent) as a negative control. All experiments were performed in triplicate and in three independent replicates. Further assays were performed considering at least 80% viability of the treated cells.
as §2, §3

For the compound `CC(C)C[C@H](NC(=O)[C@H](C)NC(=O)[C@H](CCCCN)NC(=O)[C@H](CCCCN)NC(=O)[C@H](CC(C)C)NC(=O)[C@H](C)NC(=O)[C@H](CCCCN)NC(=O)[C@H](CCCCN)NC(=O)[C@H](CC(C)C)NC(=O)[C@H](CCCCN)NC(=O)[C@H](CCCCN)NC(=O)[C@H](CC(C)C)NC(=O)[C@H](C)NC(=O)[C@H](CCCCN)NC(=O)[C@H](CCCCN)NC(=O)[C@H](CC(C)C)NC(=O)[C@H](C)NC(=O)[C@H](CCCCN)NC(=O)[C@H](CC(C)C)NC(=O)[C@H](C)NC(=O)[C@H](CC(C)C)NC(=O)[C@H](C)NC(=O)[C@H](Cc1ccccc1)NC(=O)[C@@H](N)CCCCN)C(N)=O` [Lys-Hecate], in data set [1], the “SI (selectivity index), ratio CC50/EC50” value was 3.06 and the EC50 was determined as 2.6 µM. Besides, in data set [2], the “CC50 (50% cytotoxic concentration)” value was 7.97 µM and the “maximum non-toxic (safe) concentration in hepatocytes” value (shortened to “maximum non-toxic”) came out at 5 µM.

For “Ac-FALALKALKKALKKLKKALKKAL-NH2 [Acetyl-Hecate]”, in data set [1], the EC50 turned out to be 3.79 µM and the “inhibition of HCV replication at the maximum safe concentration” value is reported as “approximately 65%”. Moreover, in data set [2], the “CC50 (50% cytotoxic concentration)” value was determined as 9.43 µM and the “maximum non-toxic” value was 5 µM.

On to FALALKALKKALKKLKKALKKAL-NH2 [Hecate], for which, in data set [1], the “SI (selectivity index), ratio CC50/EC50” value amounted to 1.42 and the EC50 is 8.57 µM. In data set [2], the “CC50 (50% cytotoxic concentration)” value was 12.17 µM and the “maximum non-toxic” value came out at 10 µM.

“H-EFALALKALKKALKKLKKALKKAL-NH2 [Glu-Hecate]”: in data set [1], the “SI (selectivity index), ratio CC50/EC50” value was determined as 2.76; the EC50 stood at 3.3 µM; the “inhibition of HCV replication at the maximum safe concentration” value is listed as “approximately 65%”. Also, in data set [2], the “CC50 (50% cytotoxic concentration)” value was found to be 9.12 µM and the “maximum non-toxic” value came out at 5 µM.
